# Assay results published in ChEMBL document CHEMBL4811304, “Design, synthesis and biological evaluation of dual mTOR/HDAC6 inhibitors in MDA-MB-231 cells” (Bioorg Med Chem Lett, 2021).
# The source made the active and inactive calls. No cut-off for these calls is given here.
# Columns and labels:
# [1] = system: MDA-MB-231; assay: Induction of apoptosis in human MDA-MB-231 cells assessed as early apoptotic cells at 5 uM by annexin V/propidium iodide staining-based flow cytometry analysis (reference value: 0.69 %); assay type: functional
# [2] = molecular target: Serine/threonine-protein kinase mTOR (Homo sapiens, UniProt P42345); assay: Inhibition of mTOR (unknown origin)
# [3] = molecular target: Histone deacetylase 2 (Homo sapiens, UniProt Q92769); assay: Binding affinity to HDAC2 in human MDA-MB-231 cells assessed as increase in thermal stability at 10 uM measured at 6 hrs by CETSA; assay type: cell-based
# [4] = system: MDA-MB-231; assay: Induction of apoptosis in human MDA-MB-231 cells assessed as downregulation of Bcl-2 at 5 to 20 uM by Western blot analysis; assay type: functional, cell-based; conditions: dose 5-20 µM
# [5] = molecular target: T1, Protein deacetylase HDAC6 (Homo sapiens) (UniProt Q9UBN7); assay: Inhibition of HDAC6 in human MDA-MB-231 cells assessed as accumulation of acetylated tubulin at 5 to 20 uM by Western blot analysis; assay type: cell-based; conditions: dose 5-20 µM
# T1 sequence (whole entry): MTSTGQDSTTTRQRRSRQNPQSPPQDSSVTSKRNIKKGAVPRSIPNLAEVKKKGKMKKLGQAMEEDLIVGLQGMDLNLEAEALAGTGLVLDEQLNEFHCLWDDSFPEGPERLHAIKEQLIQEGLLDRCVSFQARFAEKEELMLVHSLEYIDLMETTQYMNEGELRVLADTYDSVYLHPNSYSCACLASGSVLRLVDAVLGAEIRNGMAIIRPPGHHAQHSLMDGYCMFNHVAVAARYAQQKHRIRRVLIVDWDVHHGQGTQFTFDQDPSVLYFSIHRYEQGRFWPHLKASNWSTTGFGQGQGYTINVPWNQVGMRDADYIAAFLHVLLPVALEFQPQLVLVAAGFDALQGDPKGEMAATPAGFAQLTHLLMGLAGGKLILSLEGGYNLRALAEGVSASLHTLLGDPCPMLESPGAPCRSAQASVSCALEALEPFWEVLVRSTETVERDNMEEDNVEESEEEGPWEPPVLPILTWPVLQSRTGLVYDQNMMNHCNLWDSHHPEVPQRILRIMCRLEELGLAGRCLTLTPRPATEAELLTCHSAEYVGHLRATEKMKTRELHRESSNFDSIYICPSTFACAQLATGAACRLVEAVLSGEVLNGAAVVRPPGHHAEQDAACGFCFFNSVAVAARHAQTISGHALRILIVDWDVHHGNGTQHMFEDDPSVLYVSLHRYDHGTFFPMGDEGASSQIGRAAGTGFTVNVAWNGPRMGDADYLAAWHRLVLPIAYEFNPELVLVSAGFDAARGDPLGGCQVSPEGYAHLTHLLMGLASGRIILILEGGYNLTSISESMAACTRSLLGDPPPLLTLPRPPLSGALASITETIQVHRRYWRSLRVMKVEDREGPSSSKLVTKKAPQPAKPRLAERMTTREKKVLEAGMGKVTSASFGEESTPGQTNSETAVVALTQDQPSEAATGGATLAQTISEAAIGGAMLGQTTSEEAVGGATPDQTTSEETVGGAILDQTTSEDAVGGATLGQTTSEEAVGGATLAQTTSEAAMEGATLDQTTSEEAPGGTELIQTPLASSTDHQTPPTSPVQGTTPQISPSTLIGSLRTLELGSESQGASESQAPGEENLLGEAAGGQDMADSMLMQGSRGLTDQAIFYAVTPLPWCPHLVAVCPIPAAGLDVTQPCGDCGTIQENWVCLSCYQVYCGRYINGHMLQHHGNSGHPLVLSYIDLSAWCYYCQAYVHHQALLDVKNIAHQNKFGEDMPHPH
# [6] = system: MDA-MB-231; assay: Induction of apoptosis in human MDA-MB-231 cells assessed as necrotic cells at 10 uM by annexin V/propidium iodide staining-based flow cytometry analysis (reference value: 0.099 %); assay type: functional
# [7] = system: MDA-MB-231; assay: Antiproliferative activity against human MDA-MB-231 cells assessed as inhibition of clone formation at 2.5 to 10 uM; assay type: functional, cell-based; conditions: dose 2.5-10 µM
# [8] = molecular target: Histone deacetylase 3 (Homo sapiens, UniProt O15379); assay: Binding affinity to HDAC3 in human MDA-MB-231 cells assessed as increase in thermal stability at 10 uM measured at 6 hrs by CETSA; assay type: cell-based
# [9] = system: MDA-MB-231; assay: Induction of apoptosis in human MDA-MB-231 cells by annexin V/propidium iodide staining-based flow cytometry analysis; assay type: functional, cell-based; conditions: dose 5-20 µM
# [10] = molecular target: T2, Protein deacetylase HDAC6 (Homo sapiens, UniProt Q9UBN7); assay: Inhibition of HDAC6 (unknown origin)
# T2 sequence (Q9UBN7 whole entry): T1 sequence (whole entry)
# [11] = system: MDA-MB-231; assay: Induction of apoptosis in human MDA-MB-231 cells assessed as live cells at 10 uM by annexin V/propidium iodide staining-based flow cytometry analysis (reference value: 96.7 %); assay type: functional
# [12] = system: MDA-MB-231; assay: Induction of apoptosis in human MDA-MB-231 cells assessed as upregulation of BAX at 5 to 20 uM by Western blot analysis; assay type: functional, cell-based; conditions: dose 5-20 µM
# [13] = system: MDA-MB-231; assay: Inhibition of cell migration in human MDA-MB-231 cells after 48 hrs by wound healing assay; assay type: functional, cell-based; conditions: dose 5-20 µM
# [14] = system: MCF-10A; assay: Cytotoxicity against human MCF-10A cells assessed as increase in cell viability; assay type: cell-based
# [15] = Solubility of the compound; assay type: physicochemical
# [16] = system: MDA-MB-231; assay: Induction of autophagy in human MDA-MB-231 cells transfected with GFP-LC3 assessed as decrease in SQSTM1/p62 expression at 5 to 20 uM after 48 hrs by Western blot analysis; assay type: functional, cell-based; conditions: dose 5-20 µM
# [17] = system: MDA-MB-231; assay: Induction of apoptosis in human MDA-MB-231 cells assessed as necrotic cells at 5 uM by annexin V/propidium iodide staining-based flow cytometry analysis (reference value: 0.099 %); assay type: functional
# [18] = system: MDA-MB-231; assay: Induction of autophagy in human MDA-MB-231 cells transfected with GFP-LC3 assessed as accumulation of LC3 puncta at 5 to 20 uM after 48 hrs by Western blot analysis; assay type: functional, cell-based; conditions: dose 5-20 µM
# [19] = system: MDA-MB-231; assay: Induction of apoptosis in human MDA-MB-231 cells assessed as live cells at 20 uM by annexin V/propidium iodide staining-based flow cytometry analysis (reference value: 96.7 %); assay type: functional
# [20] = system: MDA-MB-436; assay: Antiproliferative activity against human MDA-MB-436 cells measured after 48 hrs; assay type: functional, cell-based; conditions: MDA-MB-436, 48 h
# [21] = system: MDA-MB-231; assay: Inhibition of cell migration in human MDA-MB-231 cells assessed as decrease in MMP-2 expression at 5 to 20 uM after 48 hrs by Western blot analysis; assay type: functional, cell-based; conditions: dose 5-20 µM
# [22] = molecular target: Histone deacetylase 1 (Homo sapiens, UniProt Q13547); assay: Binding affinity to HDAC1 in human MDA-MB-231 cells assessed as increase in thermal stability at 10 uM measured at 6 hrs by CETSA; assay type: cell-based
# [23] = system: MDA-MB-231; assay: Inhibition of cell migration in human MDA-MB-231 cells assessed as increase in E-cadherin expression at 5 to 20 uM after 48 hrs by Western blot analysis; assay type: functional, cell-based; conditions: dose 5-20 µM
# [24] = system: MDA-MB-231; assay: Induction of apoptosis in human MDA-MB-231 cells assessed as early apoptotic cells at 20 uM by annexin V/propidium iodide staining-based flow cytometry analysis (reference value: 0.69 %); assay type: functional
# [25] = system: MDA-MB-231; assay: Antiproliferative activity against human MDA-MB-231 cells measured after 48 hrs; assay type: functional, cell-based; conditions: MDA-MB-231, 48 h
# Histone deacetylase 3, sequence (O15379 whole entry): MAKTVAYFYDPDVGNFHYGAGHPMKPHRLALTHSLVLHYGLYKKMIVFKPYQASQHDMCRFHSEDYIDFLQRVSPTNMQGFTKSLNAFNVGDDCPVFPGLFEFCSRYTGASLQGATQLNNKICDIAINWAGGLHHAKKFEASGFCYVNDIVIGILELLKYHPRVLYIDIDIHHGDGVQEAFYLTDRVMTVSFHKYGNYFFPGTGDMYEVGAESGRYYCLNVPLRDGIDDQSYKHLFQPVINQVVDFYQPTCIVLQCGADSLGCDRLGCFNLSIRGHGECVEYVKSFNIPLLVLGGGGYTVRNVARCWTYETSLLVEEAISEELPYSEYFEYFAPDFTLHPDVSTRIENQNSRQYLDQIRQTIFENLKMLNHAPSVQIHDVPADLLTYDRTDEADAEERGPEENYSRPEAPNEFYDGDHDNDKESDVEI
# Histone deacetylase 1, sequence (Q13547 whole entry): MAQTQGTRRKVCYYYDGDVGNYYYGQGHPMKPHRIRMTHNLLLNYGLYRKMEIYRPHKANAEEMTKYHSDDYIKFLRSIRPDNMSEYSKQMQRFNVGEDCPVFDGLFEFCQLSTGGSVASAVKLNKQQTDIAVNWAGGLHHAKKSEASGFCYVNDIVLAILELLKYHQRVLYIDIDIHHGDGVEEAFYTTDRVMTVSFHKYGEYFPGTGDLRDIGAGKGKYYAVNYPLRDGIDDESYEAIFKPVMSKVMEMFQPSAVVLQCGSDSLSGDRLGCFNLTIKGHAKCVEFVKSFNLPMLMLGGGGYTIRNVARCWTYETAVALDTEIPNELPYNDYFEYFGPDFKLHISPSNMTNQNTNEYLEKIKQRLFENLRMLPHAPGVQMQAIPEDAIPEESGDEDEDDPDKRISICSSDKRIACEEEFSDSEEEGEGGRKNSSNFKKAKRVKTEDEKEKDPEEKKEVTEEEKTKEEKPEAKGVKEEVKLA
# Histone deacetylase 2, sequence (Q92769 whole entry): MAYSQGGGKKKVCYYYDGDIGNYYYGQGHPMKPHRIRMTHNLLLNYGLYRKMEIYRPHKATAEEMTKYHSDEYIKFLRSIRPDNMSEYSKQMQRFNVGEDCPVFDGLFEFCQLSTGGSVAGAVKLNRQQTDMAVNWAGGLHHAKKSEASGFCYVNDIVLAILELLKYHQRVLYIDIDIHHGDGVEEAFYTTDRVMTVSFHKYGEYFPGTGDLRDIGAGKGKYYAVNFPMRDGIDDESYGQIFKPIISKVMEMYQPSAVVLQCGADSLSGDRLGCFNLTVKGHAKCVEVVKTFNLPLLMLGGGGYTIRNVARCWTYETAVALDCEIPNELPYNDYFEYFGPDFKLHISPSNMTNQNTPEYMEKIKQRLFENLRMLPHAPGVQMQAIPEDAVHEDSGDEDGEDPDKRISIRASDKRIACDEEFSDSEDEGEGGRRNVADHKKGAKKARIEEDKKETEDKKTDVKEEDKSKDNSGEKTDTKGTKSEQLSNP
compound,measurement,setting,value
CN1CCN(c2nc(-c3ccc(C(=O)NO)cc3)nc3cc(Cl)ccc23)CC1,Activity,[1],4.84%
same,IC50,[2],0.134 µM
same,Activity,[3],inactive
same,Activity,[4],Active
same,inhibition,[5],Active
same,Activity,[6],0.49%
same,inhibition,[7],Active
same,Activity,[8],inactive
same,Activity,[9],Dose-Dependent Effect
same,IC50,[10],0.056 µM
same,Activity,[11],69.1%
same,Activity,[12],Active
same,inhibition,[13],Active
same,Activity,[14],Non-Toxic
same,solubility,[15],Insoluble
same,Activity,[16],Active
same,Activity,[17],0.64%
same,Activity,[18],Active
same,Activity,[19],53.9%
same,IC50,[20],10.6 µM
same,inhibition,[21],Active
same,Activity,[22],inactive
same,inhibition,[23],Active
same,Activity,[24],11.3%
same,IC50,[25],8.4 µM
